Source: BindingDB's records for doi:10.1016/j.ejmech.2010.02.027 (University of Florida, 2010)

Each compound was assayed against Neuronal acetylcholine receptor subunit alpha-4/beta-2 (Rattus norvegicus, UniProt P09483+P12390) (assay: Displacement of [3H]cytisine from alpha4beta2 nAChR in rat brain membrane after 3 hrs).
Sequence of Neuronal acetylcholine receptor subunit alpha-4/beta-2 (P09483 whole entry): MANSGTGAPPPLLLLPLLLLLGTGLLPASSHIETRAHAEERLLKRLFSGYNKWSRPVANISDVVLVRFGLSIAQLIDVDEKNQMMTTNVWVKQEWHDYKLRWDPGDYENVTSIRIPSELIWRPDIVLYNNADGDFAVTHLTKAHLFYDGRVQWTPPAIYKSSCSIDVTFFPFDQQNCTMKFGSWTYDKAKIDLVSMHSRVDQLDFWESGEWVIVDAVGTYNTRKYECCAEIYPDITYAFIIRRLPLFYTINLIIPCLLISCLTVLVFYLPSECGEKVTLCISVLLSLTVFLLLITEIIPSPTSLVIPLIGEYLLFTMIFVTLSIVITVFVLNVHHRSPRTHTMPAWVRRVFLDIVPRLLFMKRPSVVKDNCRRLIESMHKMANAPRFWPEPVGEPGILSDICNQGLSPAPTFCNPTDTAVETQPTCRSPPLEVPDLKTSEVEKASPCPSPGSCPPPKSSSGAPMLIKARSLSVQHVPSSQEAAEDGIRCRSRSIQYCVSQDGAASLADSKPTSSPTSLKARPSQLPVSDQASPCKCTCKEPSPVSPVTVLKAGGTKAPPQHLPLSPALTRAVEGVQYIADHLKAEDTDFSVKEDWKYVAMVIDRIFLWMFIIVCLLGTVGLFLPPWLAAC
Sequence of Neuronal acetylcholine receptor subunit alpha-4/beta-2 (P12390 whole entry): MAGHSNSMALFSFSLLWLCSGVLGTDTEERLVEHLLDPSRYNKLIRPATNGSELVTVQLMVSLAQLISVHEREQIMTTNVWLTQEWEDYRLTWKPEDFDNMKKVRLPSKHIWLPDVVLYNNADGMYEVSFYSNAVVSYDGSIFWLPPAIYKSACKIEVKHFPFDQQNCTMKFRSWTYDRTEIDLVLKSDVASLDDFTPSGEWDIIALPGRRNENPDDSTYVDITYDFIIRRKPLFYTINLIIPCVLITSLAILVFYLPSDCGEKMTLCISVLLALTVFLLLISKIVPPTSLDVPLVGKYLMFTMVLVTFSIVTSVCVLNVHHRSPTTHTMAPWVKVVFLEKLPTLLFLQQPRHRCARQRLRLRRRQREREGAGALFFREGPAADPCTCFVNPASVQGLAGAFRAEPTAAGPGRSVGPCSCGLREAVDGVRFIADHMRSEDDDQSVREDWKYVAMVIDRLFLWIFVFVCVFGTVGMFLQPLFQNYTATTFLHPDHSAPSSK

Point of comparison: CCCc1ccc(/C=C2\CCCN=C2c2cccnc2)cc1 [3-(4-n-Propylbenzylidene)anabaseine], Ki 51 nM. Against it:
- COc1ccc(/C=C2\CCCN=C2c2cccnc2)c(OC(C)C)c1 [3-(2-i-Propoxy-4-methoxybenzylidene)anabaseine] — 15-fold higher, 770 nM
- COc1cc(/C=C2\CCCN=C2c2cccnc2)cc(OC)c1OC [3-(3,4,5-Trimethoxybenzylidene)anabaseine] — 13-fold higher, 669 nM
- CC(=O)Oc1ccc(/C=C2\CCCN=C2c2cccnc2)cc1 [3-(4-Acetoxybenzylidene)anabaseine] — 12-fold higher, 602 nM
- Nc1ccc(/C=C2\CCCN=C2c2cccnc2)cc1 [3-(4-Aminobenzylidene)anabaseine] — 18-fold higher, 921 nM
- CN(C)c1ccc(/C=C2\CCCN=C2c2cccnc2)cc1 [3-(4-Dimethylaminobenzylidene)anabaseine] — 15-fold higher, 770 nM
- C(=C1/CCCN=C1c1cccnc1)/c1cc2ccccc2o1 [3-(Benzofuran-2-ylmethylene)anabaseine] — 15-fold higher, 772 nM
- CCC(CC)Oc1cc(OC)ccc1/C=C1\CCCN=C1c1cccnc1 [3-[2-(Pentan-3-yloxy)-4-methoxybenzylidene]anabaseine] — 7.2-fold higher, 367 nM
- CC(=O)Nc1ccc(/C=C2\CCCN=C2c2cccnc2)cc1 [N-(4-((2-(pyridin-3-yl)-5,6-dihydropyridin-3(4H)-ylidene)methyl)phenyl)acetamide] — 8.2-fold higher, 420 nM
